# Measurements: PubChem BioAssay AID1963981 (Molecular Pharmacology Branch, DTP, NCI, 2024)
# System: 354836-022-R-J1-PDC multicell spheroid viability
# Assay: Anticancer human tumor 354836-022-R-J1-PDC patient-derived head and neck squamous cell carcinoma cell line growth inhibition [PI3K]
# Settings: for IC50: curve of first compound; for viability, T/C: stronger effect = lower value
# Excerpt: Combinatorial screen of targeted agents with the PI3K inhibitors inavolisib, alpelisib, duvelisib, and copanlisib in multi-cell type tumor spheroids
# A high-throughput screen of multi-cell type tumor spheroids was designed to identify active combinations of targeted small molecules and PI3K pathway inhibitors. Complex spheroids include a stromal component modeled by human endothelial cells (HUVEC) and fibroblasts modeled by human mesenchymal stem cells (MSCs). The concentration ranges selected for each drug and investigational agent were based upon clinically achievable concentrations if the clinical Cmax of the agent was known.
# Compounds. The drugs and investigational agents: inavolisib (NSC800729), alpelisib (NSC765974), duvelisib (NSC772469), copanlisib (NSC816437), ipatasertib (NSC767898), afuresertib (NSC778305), talazoparib (NSC767125), sapanisertib (NSC764658), selumetinib (NSC741078), tovorafenib (DAY101, NSC766906), vemurafenib (NSC761431), ravoxertinib (NSC781343), sotorasib (NSC818433), MRTX1133 (NSC 836407), abemaciclib (NSC 768073), palbociclib (NSC758247), venetoclax (NSC 766270), SY5609 (NSC837396), enzalutamide (NSC755605), and darolutamide (NSC825331), were obtained from the National Cancer Institute (NCI) Developmental Therapeutics Program Chemical Repository. The FDA-approved anticancer drug set is available from the NCI Developmental Therapeutics Program. […] The stock solutions were prepared in dimethyl sulfoxide (DMSO, Sigma-Aldrich, St. Louis, MO, cat. D2650) at 800-fold the tested concentration and stored at -70 degrees C prior to their use. All drugs and investigational agents were tested over a range starting from a high concentration at or near the clinical Cmax and decreasing in half-log increments. If the clinical Cmax for an agent had not been determined, the highest concentration tested was 10 microM.
# Cell Culture. All cells were maintained in an incubator at 37 degrees C and 5% CO2 with 95% humidity. The PDC lines were cultured according to standard operating procedures established by the NCI PDMR (https://pdmr.cancer.gov/sops/default.htm). All PDCs were thawed and cultured in Matrigel-coated flasks prepared with a working solution of 1X Ham's F-12 nutrient mix, without supplementation (Invitrogen, Waltham, MA, cat. 11765054), 100 U/mL penicillin-streptomycin (Invitrogen, cat. 15140122), and 2.5% Matrigel (Corning Inc., Corning, NY, cat. 354248) for the first three passages. The 354836-022-R-J1-PDC, 475296-252-R-J1-PDC, and 997726-040-R-J2-PDC lines were cultured in 6A media, which includes advanced DMEM/F-12 (Thermo Fisher Scientific, cat. 12634028), 10 mM HEPES (Thermo Fisher Scientific, cat. 15630080), 1X GlutaMAX supplement (Thermo Fisher Scientific, cat. 35050061), 0.1 mg/mL primocin (InvivoGen, San Diego, CA, cat. ant-pm-2), 10% defined fetal bovine serum, heat inactivated (HyClone Laboratories Inc., Logan, UT, cat. SH30070.03HI), 50% L-WRN conditioned media (ATCC, cat. CRL-3276), 1.25 mM N-Acetyl-L-cysteine (Sigma-Aldrich, cat. A9165), 10 mM nicotinamide (Sigma-Aldrich, cat. N0636), 1X B-27 supplement (Thermo Fisher Scientific, cat. 17504044), 1X N-2 supplement (Thermo Fisher Scientific, cat. 17502048), and 10 microM Y-27632 dihydrochloride (Tocris Bioscience, Bristol, United Kingdom, cat. 1254). The 624824-186-R-J2-PDC line was cultured in 6C/Colon 1B media, which includes all 6A media components plus 50 ng/mL human EGF recombinant protein (Thermo Fisher Scientific, cat. PHG0311). […]
# 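Note: spheroids exposed to agents for seven days before the viability read.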
compound,measurement,setting,value
Cn1cnc2c(F)c(Nc3ccc(Br)cc3Cl)c(C(=O)NOCCO)cc21 + COc1c(OCCCN2CCOCC2)ccc2c3n(c(=NC(=O)c4cnc(N)nc4)nc12)CCN3,IC50,second compound 0.00316 µM,> 3000 nM
same,IC50,second compound 0.01 µM,> 3000 nM
same,IC50,second compound 0.0316 µM,1860 nM
same,IC50,second compound 0.1 µM,< 9.49 nM
same,IC50,second compound 0.316 µM,< 9.49 nM
same,IC50,second compound 1 µM,< 9.49 nM
same,"viability, T/C","second compound 0.00316 µM, first compound 0.00949 µM",107%
same,"viability, T/C","second compound 0.00316 µM, first compound 0.03 µM",86.2%
same,"viability, T/C","second compound 0.00316 µM, first compound 0.0949 µM",89.4%
same,"viability, T/C","second compound 0.00316 µM, first compound 0.3 µM",96.6%
same,"viability, T/C","second compound 0.00316 µM, first compound 0.949 µM",75.5%
same,"viability, T/C","second compound 0.00316 µM, first compound 3 µM",58%
same,"viability, T/C","second compound 0.01 µM, first compound 0.00949 µM",83.3%
same,"viability, T/C","second compound 0.01 µM, first compound 0.03 µM",84.6%
same,"viability, T/C","second compound 0.01 µM, first compound 0.0949 µM",78.3%
same,"viability, T/C","second compound 0.01 µM, first compound 0.3 µM",89.2%
same,"viability, T/C","second compound 0.01 µM, first compound 0.949 µM",75.4%
same,"viability, T/C","second compound 0.01 µM, first compound 3 µM",60.7%
same,"viability, T/C","second compound 0.0316 µM, first compound 0.00949 µM",81.2%
same,"viability, T/C","second compound 0.0316 µM, first compound 0.03 µM",80%
same,"viability, T/C","second compound 0.0316 µM, first compound 0.0949 µM",67.8%
same,"viability, T/C","second compound 0.0316 µM, first compound 0.3 µM",66.9%
same,"viability, T/C","second compound 0.0316 µM, first compound 0.949 µM",66.3%
same,"viability, T/C","second compound 0.0316 µM, first compound 3 µM",41%
same,"viability, T/C","second compound 0.1 µM, first compound 0.00949 µM",43.8%
same,"viability, T/C","second compound 0.1 µM, first compound 0.03 µM",48.6%
same,"viability, T/C","second compound 0.1 µM, first compound 0.0949 µM",38.3%
same,"viability, T/C","second compound 0.1 µM, first compound 0.3 µM",41.9%
same,"viability, T/C","second compound 0.1 µM, first compound 0.949 µM",31.2%
same,"viability, T/C","second compound 0.1 µM, first compound 3 µM",15.2%
same,"viability, T/C","second compound 0.316 µM, first compound 0.00949 µM",12.7%
same,"viability, T/C","second compound 0.316 µM, first compound 0.03 µM",9.02%
same,"viability, T/C","second compound 0.316 µM, first compound 0.0949 µM",11%
same,"viability, T/C","second compound 0.316 µM, first compound 0.3 µM",9.87%
same,"viability, T/C","second compound 0.316 µM, first compound 0.949 µM",5.57%
same,"viability, T/C","second compound 0.316 µM, first compound 3 µM",1.48%
same,"viability, T/C","second compound 1 µM, first compound 0.00949 µM",1.58%
same,"viability, T/C","second compound 1 µM, first compound 0.03 µM",1.2%
same,"viability, T/C","second compound 1 µM, first compound 0.0949 µM",1.03%
same,"viability, T/C","second compound 1 µM, first compound 0.3 µM",1.25%
same,"viability, T/C","second compound 1 µM, first compound 0.949 µM",0.64%
same,"viability, T/C","second compound 1 µM, first compound 3 µM",0.57%
Cn1ncc(Cl)c1-c1cc(C(=O)NC(CN)Cc2cccc(F)c2)sc1Cl (centres undefined) + Cc1nc(NC(=O)N2CCCC2C(N)=O)sc1-c1ccnc(C(C)(C)C(F)(F)F)c1,IC50,second compound 0.0316 µM,99.8 nM
same,IC50,second compound 0.1 µM,105 nM
same,IC50,second compound 0.316 µM,157 nM
same,IC50,second compound 1 µM,115 nM
same,IC50,second compound 3.16 µM,32.4 nM
same,IC50,second compound 10 µM,< 31.6 nM
same,"viability, T/C","second compound 0.0316 µM, first compound 0.0316 µM",78.8%
same,"viability, T/C","second compound 0.0316 µM, first compound 0.1 µM",46.8%
same,"viability, T/C","second compound 0.0316 µM, first compound 0.316 µM",32.6%
same,"viability, T/C","second compound 0.0316 µM, first compound 1 µM",20.9%
same,"viability, T/C","second compound 0.0316 µM, first compound 3.16 µM",17.9%
same,"viability, T/C","second compound 0.0316 µM, first compound 10 µM",3.64%
same,"viability, T/C","second compound 0.1 µM, first compound 0.0316 µM",79.4%
same,"viability, T/C","second compound 0.1 µM, first compound 0.1 µM",45%
same,"viability, T/C","second compound 0.1 µM, first compound 0.316 µM",36.2%
same,"viability, T/C","second compound 0.1 µM, first compound 1 µM",21.6%
same,"viability, T/C","second compound 0.1 µM, first compound 3.16 µM",16.7%
same,"viability, T/C","second compound 0.1 µM, first compound 10 µM",4.82%
same,"viability, T/C","second compound 0.316 µM, first compound 0.0316 µM",64.3%
same,"viability, T/C","second compound 0.316 µM, first compound 0.1 µM",63.8%
same,"viability, T/C","second compound 0.316 µM, first compound 0.316 µM",31.2%
same,"viability, T/C","second compound 0.316 µM, first compound 1 µM",23%
same,"viability, T/C","second compound 0.316 µM, first compound 3.16 µM",19.3%
same,"viability, T/C","second compound 0.316 µM, first compound 10 µM",4.88%
same,"viability, T/C","second compound 1 µM, first compound 0.0316 µM",59.5%
same,"viability, T/C","second compound 1 µM, first compound 0.1 µM",53.6%
same,"viability, T/C","second compound 1 µM, first compound 0.316 µM",36.9%
same,"viability, T/C","second compound 1 µM, first compound 1 µM",21.2%
same,"viability, T/C","second compound 1 µM, first compound 3.16 µM",14.4%
same,"viability, T/C","second compound 1 µM, first compound 10 µM",3.77%
same,"viability, T/C","second compound 3.16 µM, first compound 0.0316 µM",48.9%
same,"viability, T/C","second compound 3.16 µM, first compound 0.1 µM",44.9%
same,"viability, T/C","second compound 3.16 µM, first compound 0.316 µM",25.4%
same,"viability, T/C","second compound 3.16 µM, first compound 1 µM",18.1%
same,"viability, T/C","second compound 3.16 µM, first compound 3.16 µM",11.6%
same,"viability, T/C","second compound 3.16 µM, first compound 10 µM",4.32%
same,"viability, T/C","second compound 10 µM, first compound 0.0316 µM",34.2%
same,"viability, T/C","second compound 10 µM, first compound 0.1 µM",29.4%
same,"viability, T/C","second compound 10 µM, first compound 0.316 µM",21.9%
same,"viability, T/C","second compound 10 µM, first compound 1 µM",14.8%
same,"viability, T/C","second compound 10 µM, first compound 3.16 µM",8.76%
same,"viability, T/C","second compound 10 µM, first compound 10 µM",3.16%
